# According to patent US7678812B2, “Aminotetralin-derived urea modulators of vanilloid VR1 receptor” (Janssen Pharmaceutica NV, priority 2002, dated 2010):
# Biological target: hVR1 receptors (Homo sapiens, UniProt Q8NER1)
# Assay: [3H] RTX binding assay, human VR1
# Parameters: expressed in transfected cells; host or cells: HEK293 (membrane preparation)
# Conditions: inhibition of [3H] RTX binding, membranes of HEK293 cells transfected with human VR1
# Experimental: Compounds of the present invention were tested for their ability to inhibit the binding of [^3H] RTX to hVR1 receptors in a [^3H] RTX binding assay as previously described (Zhang, Sui-Po. Improved ligand binding assays for vanilloid receptors. PCT Int. Appl. (2002), 29 pp. CODEN: PIXXD2 WO 0233411 A1 20020425 AN 2002:315209; Grant, Elfrida R.; Dubin, Adrienne E.; Zhang, Sui-Po; Zivin, Robert A.; Zhong, Zhong Simultaneous intracellular calcium and sodium flux imaging in human vanilloid receptor 1 (VR1)-transfected human embryonic kidney cells: a method to resolve ionic dependence of VR1-mediated cell death. Journal of Pharmacology and Experimental Therapeutics (2002), 300(1), 9-17.)
# HEK293 cells were transfected with human VR1 vanilloid receptors and washed with Hank's Balanced Salt Solution, dissociated with cell dissociation buffer (Sigma), and then centrifuged at 1000×g for 5 min. Cell pellets were homogenized in cold 20 mM HEPES buffer, pH 7.4, containing 5.8 mM NaCl, 320 mM sucrose, 2 mM MgCl2, 0.75 CaCl2 and 5 mM KCl and centrifuged at 1000×g for 15 min. The resultant supernate was then centrifuged at 40000×g for 15 min. The pelleted membranes were kept in an −80° C. freezer.
# Approximately 120 μg protein/ml from membranes were incubated with indicated concentrations of [^3H] RTX in 0.5 ml of the HEPES buffer (pH 7.4) containing 0.25 mg/mL fatty acid-free bovine serum albumin at 37° C. for 60 min. The reaction mixture was then cooled to 4° C., 0.1 mg α1-acid glycoprotein added to each sample and incubated at 4° C. for 15 min. The samples were centrifuged at 18500×g for 15 min. The tip of the microcentrifuge tube containing the pellet was cut off. Bound radioactivity was quantified by scintillation counting. Non-specific binding was tested in the presence of 200 nM unlabeled RTX.
# hVR1 receptors, sequence (Q8NER1 whole entry): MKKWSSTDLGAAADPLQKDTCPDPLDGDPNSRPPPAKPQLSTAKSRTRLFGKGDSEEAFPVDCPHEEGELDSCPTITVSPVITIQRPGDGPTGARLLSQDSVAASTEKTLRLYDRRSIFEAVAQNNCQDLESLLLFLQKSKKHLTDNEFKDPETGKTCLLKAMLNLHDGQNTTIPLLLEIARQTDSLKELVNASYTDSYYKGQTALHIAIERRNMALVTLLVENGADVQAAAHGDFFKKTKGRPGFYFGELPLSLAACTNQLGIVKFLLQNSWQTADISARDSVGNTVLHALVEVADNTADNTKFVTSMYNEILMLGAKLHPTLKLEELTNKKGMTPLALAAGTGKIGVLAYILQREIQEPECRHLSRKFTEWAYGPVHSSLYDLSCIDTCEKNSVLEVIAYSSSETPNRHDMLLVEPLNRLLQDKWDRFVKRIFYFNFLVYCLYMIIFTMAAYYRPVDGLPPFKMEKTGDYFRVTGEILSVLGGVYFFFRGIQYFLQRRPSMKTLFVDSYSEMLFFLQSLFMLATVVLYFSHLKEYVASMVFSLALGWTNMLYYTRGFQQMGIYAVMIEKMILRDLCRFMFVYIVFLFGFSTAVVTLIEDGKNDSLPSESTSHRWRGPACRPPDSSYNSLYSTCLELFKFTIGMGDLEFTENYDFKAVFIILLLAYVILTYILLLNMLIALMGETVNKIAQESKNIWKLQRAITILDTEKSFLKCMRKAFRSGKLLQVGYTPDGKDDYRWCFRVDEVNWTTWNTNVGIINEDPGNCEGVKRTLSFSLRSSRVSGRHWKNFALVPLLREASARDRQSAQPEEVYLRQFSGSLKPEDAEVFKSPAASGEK
row,SMILES,Ki
1,COc1ccc2c(c1)CCC(NC(=O)NCCc1ccc(OC)c(OC)c1)C2Cc1ccccc1 (centres unmarked) [Compound 13],3600 nM
2,COc1ccc2c(c1)CCC(NC(=O)Nc1cccc3cnccc13)C2Cc1ccc(Br)cc1 (centres unmarked) [Compound 64],1.28 nM
3,COc1ccc2c(c1)CCC(NC(=O)Nc1cccc3cnccc13)C2Cc1cccnc1 (centres unmarked) [Compound 45],1540 nM
4,"COc1ccc2c(c1)CCC(NC(=S)NCc1ccc(O)c(OC)c1)C2Cc1ccccc1 (centres unmarked) [Compound 3, 1-(1-Benzyl-6-methoxy-1,2,3,4-tetrahydro-naphthalen-2-yl)-3-(4-hydroxy-3-methoxy-benzyl)-thiourea]",98.9 nM
5,COc1ccc2c(c1)CCC(NC(=S)NCc1ccc(O)c(OC)c1)C2Cc1c[nH]cn1 (centres unmarked) [Compound 8],> 10000 nM
6,O=C(Nc1cccc2cnccc12)NC1CCc2cc(Br)ccc2C1 (centres unmarked) [Compound 58],2.62 nM
7,C=CCC1c2ccc(F)cc2CCC1NC(=O)Nc1cccc2cnccc12 (centres unmarked) [Compound 69],2.19 nM
8,COc1ccc(CC2c3ccc(OC)cc3CCC2NC(=O)Nc2cccc3cnccc23)cc1 (centres unmarked) [Compound 70],5.55 nM
9,COc1ccc2c(c1)CCC(NC(=O)Nc1cccc3cnccc13)C2Cc1ccc(C#N)cc1 (centres unmarked) [Compound 63],16.5 nM
10,COc1ccc2c(c1)CCC(NC(=O)Nc1cccc3cnccc13)C2Cc1c(F)cccc1F (centres unmarked) [Compound 77],6.26 nM
11,O=C(Nc1cccc2cnccc12)NC1CCc2cc(F)ccc2C1 (centres unmarked) [Compound 37],24.9 nM
12,COc1ccc2c(c1)CCC(NC(=O)NCc1ccc(OC)c(OC)c1)C2Cc1ccccc1 (centres unmarked) [Compound 10],13000 nM
13,COc1ccc2c(c1)CCC(NC(=O)Nc1cccc3cnccc13)C2Cc1ccccc1C(F)(F)F (centres unmarked) [Compound 53],0.48 nM
14,COc1ccc2c(c1)CCC(NC(=O)Nc1cccc3cnccc13)C2Cc1ccc(OCc2ccccc2)cc1 (centres unmarked) [Compound 74],11.3 nM
15,COc1ccc2c(c1)CCC(NC(=O)Nc1cccc3cnccc13)C2Cc1cccc(C(F)(F)F)c1 (centres unmarked) [Compound 54],2.04 nM
16,COc1cc(CNC(=S)NC2CCc3ccccc3C2Cc2ccccc2)ccc1O (centres unmarked) [Compound 23],98.2 nM
17,COc1ccc2c(c1)CCC(NC(=O)Nc1cccc3cnccc13)C2Cc1ccccc1OC (centres unmarked) [Compound 73],53.4 nM
18,"O=C(Nc1cccc2cnccc12)NC1CCc2cc(F)ccc2C1CC1CC1 (centres unmarked) [Compound 71, 1-(1-cyclopropylmethyl-6-fluoro-1,2,3,4-tetrahydronaphthalene-2-yl)-3-isoquinolin-5-yl-urea]",0.84 nM
19,COCOc1ccc(CNC(=S)NC2CCc3ccccc3C2Cc2ccccc2)cc1OC (centres unmarked) [Compound 21],520 nM
20,COc1ccc2c(c1)CCC(NC(=S)NCc1ccc3c(c1)OCO3)C2Cc1ccccc1 (centres unmarked) [Compound 14],> 10000 nM
21,O=C(Nc1cccc2cnccc12)NC1CCc2cc(Cl)ccc2C1 (centres unmarked) [Compound 59],2.6 nM
22,COc1ccc2c(c1)CCC(NC(=O)Nc1cccc3cnccc13)C2Cc1ccc(C(F)(F)F)cc1 (centres unmarked) [Compound 55],1.55 nM
23,COc1ccc2c(c1)CCC(NC(=S)NCc1ccc(OC)c(OC)c1)C2Cc1ccccc1 (centres unmarked) [Compound 15],3110 nM
24,COc1ccc2c(c1)CCC(NC(=O)NCc1ccc(O)c(OC)c1)C2Cc1ccccc1 (centres unmarked) [Compound 19],258 nM
25,COc1ccc2c(c1)CCC(NC(=O)NCc1ccc3c(c1)OCO3)C2Cc1ccccc1 (centres unmarked) [Compound 9],> 10000 nM
26,O=C(Nc1cccc2cnccc12)NC1CCc2ccc(Cl)cc2C1 (centres unmarked) [Compound 61],3.42 nM
27,COc1ccc2c(c1)CCC(NC(=O)Nc1cccc3cnccc13)C2Cc1cccnc1 (centres unmarked) [Compound 47],1030 nM
28,COc1ccc2c(c1)CCC(NC(=O)NCc1ccc(N(C)C3CCCCC3)cc1)C2Cc1ccccc1 (centres unmarked) [Compound 25],70900 nM
29,COc1ccc2c(c1)CCC(NC(=O)Nc1cccc3cnccc13)C2 (centres unmarked) [Compound 51],24 nM
30,COc1ccc(CC2c3ccc(OC)cc3CCC2NC(=O)Nc2cccc3cnccc23)cc1 (centres unmarked) [Compound 72],7.52 nM

# The next lines start with the values.
row,Ki,SMILES
1,1.8 nM,COc1ccc2c(c1)CCC(NC(=O)Nc1cccc3cnccc13)C2Cc1ccc(Cl)cc1 (centres unmarked) [Compound 50]
2,9.64 nM,COc1ccc2c(c1)CCC(NC(=O)Nc1cccc3ccc(O)cc13)C2Cc1ccccc1 (centres unmarked) [Compound 35]
3,186 nM,O=C(Nc1cccc2c(Cl)nc(Cl)cc12)NC1CCc2cc(F)ccc2C1Cc1ccccc1 (centres unmarked) [Compound 108]
4,32.3 nM,"O=C(Nc1cccc2c(Cl)nccc12)NC1CCc2cc(F)ccc2C1Cc1ccccc1 (single isomer, unassigned) [Compound 104]"
5,19.3 nM,COc1cc2c(cc1OC)C(Cc1ccccc1)C(NC(=O)Nc1cccc3cnccc13)CC2 (centres unmarked) [Compound 48]
6,1.96 nM,COc1ccc2c(c1)CC[C@@H](NC(=O)Nc1cccc3cnccc13)[C@H]2Cc1cccc(Cl)c1 (relative stereo) [Compound 44]
7,1.7 nM,O=C(Nc1cccc2cnccc12)NC1CCc2cc(Cl)ccc2C1Cc1ccccc1 (centres unmarked) [Compound 86]
8,8.81 nM,COc1ccc2c(c1)CC[C@@H](NC(=O)Nc1cccc3cnccc13)[C@@H]2Cc1cccc(Cl)c1 (relative stereo) [Compound 46]
9,45.4 nM,"O=C(Nc1cccc2c[n+]([O-])ccc12)NC1CCc2cc(F)ccc2C1Cc1ccccc1 (single isomer, unassigned) [Compound 97]"
10,2730 nM,O=C(Nc1cccc2cncc(Cl)c12)N[C@H]1CCc2cc(F)ccc2[C@H]1Cc1ccccc1 (relative stereo) [Compound 98]
11,3.66 nM,O=C(Nc1cccc2cnccc12)NC1CCc2ccccc2C1Cc1ccccc1 (centres unmarked) [Compound 43]
12,2700 nM,O=C(Nc1cccc2cncc(Cl)c12)NC1CCc2cc(F)ccc2C1Cc1ccccc1 (centres unmarked) [Compound 99]
13,1.82 nM,O=C(Nc1cccc2cnccc12)NC1CCc2cc(F)c(F)cc2C1Cc1ccccc1 (centres unmarked) [Compound 66]
14,3.81 nM,O=C(Nc1cccc2cnccc12)NC1CCc2cc(F)ccc2C1Cc1cccs1 (centres unmarked) [Compound 76]
15,4.99 nM,"O=C(NCc1cccc2cnccc12)NC1CCc2cc(F)ccc2C1Cc1ccccc1 (centres unmarked) [Compound 60, 1-(1-Benzyl-6-fluoro-1,2,3,4-tetrahydronaphthalene-2-yl)-3-isoquinolin-5-ylmethyl-urea]"
16,1.44 nM,"O=C(Nc1cccc2ccc(O)cc12)NC1CCc2cc(F)ccc2C1Cc1ccccc1 (centres unmarked) [Compound 67, 1-(1-Benzyl-6-fluoro-1,2,3,4-tetrahydronaphthalene-2-yl)-3-(7-hydroxy-naphthalen-1-yl)-urea]"
17,1.12 nM,"Cc1cc2c(NC(=O)NC3CCc4cc(F)ccc4C3Cc3ccccc3)cccc2cn1 (single isomer, unassigned) [Compound 81a]"
18,277 nM,O=C(Nc1cccc2cnccc12)NC1CCc2cc(O)ccc2C1Cc1ccccc1 (centres unmarked) [Compound 56]
19,0.89 nM,O=C(Nc1cccc2cnccc12)N[C@H]1CCc2cc(Br)ccc2[C@H]1Cc1ccccc1 (relative stereo) [Compound 39]
20,7.59 nM,O=C(Nc1cccc2cnccc12)NC1CCc2cccc(Cl)c2C1Cc1ccccc1 (centres unmarked) [Compound 62]
21,12.3 nM,COc1ccc2c(c1)CC[C@@H](NC(=O)Nc1cccc3cnccc13)[C@@H]2Cc1ccccc1Cl (relative stereo) [Compound 52]
22,5.25 nM,"Cc1cc2c(NC(=O)NC3CCc4cc(F)ccc4C3Cc3ccccc3)cccc2cn1 (single isomer, unassigned) [Compound 81b]"
23,29.6 nM,COc1cc2c(cc1OC)C(Cc1ccccc1)C(NC(=O)Nc1cccc3cnccc13)CC2 (centres unmarked) [Compound 40]
